Measurements taken from patent US20120283293A1, “Methods of neuroprotection involving Prostaglandin E2 EP4 (PGE2 EP4) receptor activation” (The Board of Trustees of the Leland Stanford Junior …, priority 2011, published 2012).

Key:
Format in all cases: cell-based, murine
[1] = test system: NF-κB subunits p65 and p50 in BV-2 cells; experiment: NF-κB p65/p50 nuclear translocation in LPS-stimulated BV-2 cells (Western, immunofluorescence)
Experimental: (§1) Nuclear and cytoplasmic fractions of BV-2 cells were prepared at several time points after treatment (0-120 minutes) using the nuclear extract kit from Active Motif (Carlsbad, Calif.). Briefly, cells were washed, collected in ice-cold PBS in the presence of phosphatase inhibitors, and centrifuged at 300×g for 5 min at 4° C. Cell pellets were resuspended in hypotonic buffer, treated with detergent, and centrifuged at 14,000×g for 30 sec at 4° C. After collection of the cytoplasmic fraction, nuclei were solubilized for 30 min in lysis buffer containing protease inhibitors. Lysates were centrifuged at 14,000×g for 30 min at 4° C. and supernatants were collected for NF-κB studies. To prepare whole cell lysates for phospho-Akt and phospho-IKK studies, cells were washed in ice-cold PBS and lysed in 20 mM Tris-HCl, pH 7.5, 150 mM NaCl, 1 mM Na2EDTA, 1 mM EGTA, 1% Triton, 2.5 mM sodium pyrophosphate, 1 mM β-glycerophosphate, 1 mM orthovanadate, 1 μg/ml leupeptin and 1 mM PMSF. Lysates were sonicated for 5 seconds, centrifuged at 14,000×g for 10 min at 4° C. and supernatants were collected for phospho-Akt and phospho-IKK studies. All protein concentrations were determined using the Bradford protein assay.
Western blot analysis. Protein (20 μg per lane) was fractionated using 12% SDS-PAGE and electrophoretically transferred to PVDF membranes (Bio-Rad, Hercules, Calif.). For phospho-Akt/Akt and phospho-IKK/IKK studies, membranes were probed with anti phospho-Ser473 Akt antibody or anti-phospho-IKK antibody (1:1000, Cell signaling, Beverly, Mass.) and anti-Akt and anti-IKK antibodies (1:1000; Cell Signaling). For NF-κB nuclear translocation studies, membranes were probed with anti-NF-κB p105/p50 antibody (1:5000, Abcom, Cambridge, Mass.) or anti-NF-κB p65 antibody (1:300, Santa Cruz Biotechnology). Loading controls included anti-actin antibody (1:10,000, Santa Cruz Biotechnology, Inc. Santa Cruz, Calif.) for cytosolic fractions and anti-lamin B1 antibody (1:10,000, Abcom, Cambridge, Mass.) for nuclear fractions. Immunoreactivity was detected using either sheep anti-rabbit or sheep anti-mouse HRP-conjugated secondary antibody (Amersham Biosciences, Arlington Heights, Ill.), followed by enhanced chemiluminescence (Pierce). Autoradiographic signals were quantified using NIH Image. Experiments were repeated in triplicate.
BV-2 cells were seeded on poly-L-Lysine coated glass coverslips and were maintained in culture for at least 24 hours before treatment with LPS+/−AE1-329. After one hour of treatment, cells were fixed with 4% paraformaldehyde and processed for immunocytochemistry using established protocols. NF-κB cellular localization was detected using rabbit anti-NF-κB p65 antibody (1:200, Santa Cruz Biotechnology) and Cy3-conjugated donkey anti-rabbit secondary antibody (Jackson ImmunoResearch Laboratories, West Grove, Pa.). Nuclei were visualized using Hoechst 33258 dye (MP Biomedicals, Solon, Ohio). Images were acquired using a Nikon Eclipse E600 microscope (Nikon Instruments, Melville, N.Y.) and a Hamamatsu Orca-ER digital camera (Hamamatsu Photonics, Bridgewater, N.J.). For quantification of nuclear NF-κB p65 levels, images were analyzed using the measurements module of Volocity 4.3.2 image analysis software (Improvision Inc., Waltham, Mass.). […] For data quantification, each data point represented the average NF-κB p65 signal from the nuclei in one field of view (>100 cells). […]

[2] = test system: IKK phosphorylation in BV-2 cells; experiment: phospho-IKK quantitative Western in LPS-stimulated BV-2 cells; conditions: LPS 100 ng/ml, AE1-329 100 nM
Experimental: as §1, with “Lysates were sonicated for 5 seconds, centrifuged at 14,000×g for 10 min at 4° C. and supernatants were collected for phospho-Akt and phospho-IKK studies.” left out
Western blot analysis. […] Immunoreactivity was detected using either sheep anti-rabbit or sheep anti-mouse HRP-conjugated secondary antibody (Amersham Biosciences, Arlington Heights, Ill.), followed by enhanced chemiluminescence (Pierce). Autoradiographic signals were quantified using NIH Image. […]

[3] = test system: PKA activity in BV-2 cells; experiment: cAMP dependent protein kinase A (PKA) activity assay in BV-2 cells; conditions: AE1-329 100 nM alone or with LPS 100 ng/ml
Experimental: PKA activity was determined using the PKA kinase activity assay kit (Assay designs, Ann Arbor, Mich.). Cells were harvested 3 minutes after stimulation, and ELISA was carried out according to the manufacturer's instructions. Kinase activity was calculated as (sample absorbance—blank absorbance)/μg protein and normalized to the average value of vehicle.
Downstream signaling events for EP4, a […] receptor, were investigated in LPS treated BV-2 cells (see FIG. 3). […] The increase in PKA activity from EP4 receptor signaling was blocked with the PKA inhibitor H89 at doses of 5 μM and 10 μM (FIG. 3B).

**Q.** How did the “nuclear p65 immunofluorescent signal” value ([1]; BV-2 cells, 60 minutes after LPS 100 ng/ml, AE1-329 100 nM) turn out when `COCc1ccccc1CC[C@H](O)/C=C/[C@H]1[C@H](O)CC(=O)[C@@H]1SCCCSCC(=O)O` [AE1-329] was run?
**A.** significantly attenuated

**Q.** What about the “LPS-induced nuclear translocation of NF-κB subunits p65 and p50 (Western)” value ([1]; BV-2 cells, LPS 100 ng/ml, AE1-329 100 nM, vs vehicle) of the same molecule?
**A.** reduced levels of NF-κB nuclear translocation

**Q.** And the “time of maximal attenuation of nuclear translocation, NF-κB p65” value ([1]; BV-2 cells, LPS + AE1-329)?
**A.** 60 min

**Q.** What about the “time of maximal attenuation of nuclear translocation, p50” value ([1]; BV-2 cells, LPS + AE1-329) of the same molecule?
**A.** 120 min

**Q.** And the “cytoplasmic levels of p65 and p50” value ([1]; LPS-treated BV-2 cells, AE1-329 vs vehicle)?
**A.** increased

**Q.** What about the “LPS-induced phosphorylation of IKK” value [2] of the same molecule?
**A.** attenuated

**Q.** And the PKA activity [3]?
**A.** significantly increased
